Measurements as given in ChEMBL document CHEMBL2151008, “Enhanced ROS production and cell death through combined photo- and sono-activation of conventional photosensitising drugs” (2011).
The source made the active and inactive calls. No cut-off for these calls is given here.

How the values were obtained:
[1] = system: CHO; assay: Cytotoxicity against CHO cells assessed as cell death at 100 uM after 3 hrs followed by photo/sono-irradiation for 30 secs measured 24 hrs post irradiation by MTT assay relative to sono-irradiated cells; assay type: functional, Cricetulus griseus
[2] = system: CHO; assay: Cytotoxicity against CHO cells assessed as cell viability at 100 uM after 3 hrs by MTT assay; assay type: functional; conditions: Cricetulus griseus, read-out: Activity
[3] = system: CHO; assay: Cytotoxicity against CHO cells assessed as cell death at 100 uM after 3 hrs followed by photo/sono-irradiation for 30 secs measured 24 hrs post irradiation by MTT assay relative to photo-irradiated cells; assay type: functional, Cricetulus griseus
[4] = system: CHO; assay: Cytotoxicity against CHO cells assessed as cell death at 0.1 to 100 uM after 3 hrs followed by sono-irradiation for 30 secs measured 24 hrs post irradiation by MTT assay; assay type: functional, cell-based; conditions: Cricetulus griseus
[5] = ROS-generating activity of the sono-irradiated compound assessed as singlet oxygen generation measuring reduction in absorbance at 410 nm at 5 uM by DPBF oxidation method; set-up: scale not given: the % may be the effect or the level left
[6] = system: CHO; assay: Cytotoxicity against CHO cells assessed as cell death at 0.1 to 100 uM after 3 hrs followed by photo/sono-irradiation for 30 secs measured 24 hrs post irradiation by MTT assay; assay type: functional, cell-based; conditions: Cricetulus griseus
[7] = ROS-generating activity of the photo/sono-irradiated compound assessed as singlet oxygen generation measuring reduction in absorbance at 410 nm at 5 uM by DPBF oxidation method; set-up: scale not given: the % may be the effect or the level left
[8] = ROS-generating activity of the photo-irradiated compound assessed as singlet oxygen generation measuring reduction in absorbance at 410 nm at 5 uM by DPBF oxidation method; set-up: scale not given: the % may be the effect or the level left
[9] = system: CHO; assay: Cytotoxicity against CHO cells assessed as cell death at 0.1 to 100 uM after 3 hrs followed by photo-irradiation for 30 secs measured 24 hrs post irradiation by MTT assay; assay type: functional, cell-based; conditions: Cricetulus griseus
[10] = system: CHO; assay: Cytotoxicity against CHO cells assessed as cell death at 100 uM after 3 hrs followed by photo-irradiation for 30 secs measured 24 hrs post irradiation by MTT assay; assay type: functional, Cricetulus griseus
[11] = system: CHO; assay: Cytotoxicity against CHO cells after 3 hrs followed by photo-irradiation for 30 secs measured 24 hrs post irradiation by MTT assay; assay type: functional, Cricetulus griseus
[12] = system: CHO; assay: Cytotoxicity against CHO cells assessed as cell death at 100 uM after 3 hrs followed by sono-irradiation for 30 secs measured 24 hrs post irradiation by MTT assay; assay type: functional, Cricetulus griseus
[13] = system: CHO; assay: Cytotoxicity against CHO cells after 3 hrs by MTT assay; assay type: functional, Cricetulus griseus
[14] = system: CHO; assay: Cytotoxicity against CHO cells after 3 hrs followed by sono-irradiation for 30 secs measured 24 hrs post irradiation by MTT assay; assay type: functional, Cricetulus griseus
[15] = system: CHO; assay: Cytotoxicity against CHO cells assessed as cell death at 100 uM after 3 hrs followed by photo/sono-irradiation for 30 secs measured 24 hrs post irradiation by MTT assay; assay type: functional, Cricetulus griseus
[16] = system: CHO; assay: Cytotoxicity against CHO cells after 3 hrs followed by photo/sono-irradiation for 30 secs measured 24 hrs post irradiation by MTT assay; assay type: functional, Cricetulus griseus

SMILES | Activity [1] | viability at 100 µM [2] | fold change (FC) [3] | Activity [4] | Activity [5] | Activity [6] | Activity [7] | Activity [8] | Activity [9] | Activity [10] | LD50 [11] | Activity [12] | LD50 [13] | LD50 [14] | Activity [15] | LD50 [16]
CN(C)c1ccc2nc3ccc(N(C)C)cc3[s+]c2c1.[Cl-] [METHYLENE BLUE ANHYDROUS] | 43% | 80% | 2 |  |  |  |  |  |  |  |  |  |  |  |  | 
CN(C)c1ccc2nc3ccc(=[N+](C)C)cc-3sc2c1 |  |  |  | Active | 40.1% | Active | 71.8% | 38.8% | Active |  |  |  |  |  |  | 
O=C([O-])c1c(Cl)c(Cl)c(Cl)c(Cl)c1-c1c2cc(I)c(=O)c(I)c-2oc2c(I)c([O-])c(I)cc12.[Na+].[Na+] [ROSE BENGAL SODIUM] |  | 65% |  |  | 58.4% |  | 74.9% | 44.7% |  | 95% | 3.3 µmol | 95% | 138.4 µmol | 38.5 µmol | 95% | 2 µmol
